Data on 16 compounds can be found in US20250084079A1, “COMPOSITIONS AND METHODS FOR INHIBITION OF RAS” (TheRas, Inc., priority 2022, published 2025).

The target in experiment [1] is T1, Avi-KRAS G12D (1-169) GppNHp/RAF1 RBD-3xFLAG (52-151) (Homo sapiens, UniProt P01116, G12D).
T1 construct: 100 nM Avi-KRAS G12D (1-169) GppNHp
The experiment is described as follows: RAS-effector PPI HTRF disruption assay, Raf1-GppNHp-KRAS G12D. It is filed as biochemical. As for the experimental part:
(§1) A protein:protein interaction (PPI) Homogeneous Time Resolved Fluorescence (HTRF) assay was used to determine the effectiveness of compounds of the present disclosure in disrupting KRAS protein and effector (RAF1 or PIK3 CA) binding.
(§2) The HTRF assay used the following reagents and proteins: (i) 375 nM Avi-KRAS G12D/Q25A (1-169) GppNHp/3×FLAG-PI3KCA (157-299); (ii) 100 nM Avi-KRAS G12D (1-169) GppNHp/RAF1 RBD-3×FLAG (52-151); (iii) 50 nM Avi-KRAS G12V (1-169) GppNHp/RAF1 RBD-3×FLAG (52-151); (iv) 50 nM Avi-KRAS WT (1-169) GppNHp/RAF1 RBD-3×FLAG (52-151); and (v) 35 nM Avi-PI3K RBD CA-3×FLAG; Assay Buffer: 50 mM Tris pH 7.5, 100 mM NaCl, 5 mM MgCl2, 0.1% BSA, 0.01% Tween, 1 mM TCEP, 10% DMSO; Bead Buffer: 50 mM Tris pH 7.5, 0.01% Tween 20; Assay volume: 20 μL (384 well plate-low volume format); and Compound titration: 100-0.02 μM, 3× dilution series.
(§3) The HTRF assay employed the following protocol:
(§4) Compounds were dispensed in assay plate (384-well, Grenier Bione #784075) using Echo (model 555) with dose response settings: 200 nL final volume, titration from 100 μM as a 10-point dilution series. Protein mix was prepared in assay buffer, and dispensed on plates, 10 μL per well, then incubated for 1 h at room temperature, with 700 rpm shaking. Reagents mix was prepared and dispensed on plates, 10 μL per well, then incubated for 1 h at room temperature, with 700 rpm shaking.
(§5) Plates were analyzed on an Envision plate reader using the following setting: Excitation 320 nm, Bandwidth […]; Emission 615 nm, Bandwidth […], Gain 100%, Flashes 100, Lag 60 μs. Data was reported as percentage of activity, with DMSO as 100%. Data was plotted and analyzed using Prism 8. The SPR Kd, biochemical Raf1-KRAS G12D/G12V/WT-GppNHP and PI3KCA-KRAS G12D/Q25A-GppNHp disruption assay IC50 of selected compounds described herein are shown in Table 4.
(TR-FRET usually uses a lanthanide donor and a delayed reading to cut background.)

Experiment [2] has as its target T2, Avi-KRAS WT (1-169) GppNHp/RAF1 RBD-3xFLAG (52-151) (Homo sapiens, UniProt P01116).
T2 construct: 50 nM Avi-KRAS WT (1-169) GppNHp
Briefly: RAS-effector PPI HTRF disruption assay, Raf1-GppNHp-KRAS WT. It counts as biochemical. As for the experimental part: as §1, §2, §3, §4, §5

Experiment [3] has as its target T3, Avi-KRAS G12V (1-169) GppNHp/RAF1 RBD-3xFLAG (52-151) (Homo sapiens, UniProt P01116, G12V).
T3 construct: 50 nM Avi-KRAS G12V (1-169) GppNHp
Briefly: RAS-effector PPI HTRF disruption assay, Raf1-GppNHp-KRAS G12V. It is filed as biochemical. As for the experimental part: as §1, §2, §3, §4, §5

In experiment [4] the target is T4, Avi-KRAS G12D/Q25A (1-169) GppNHp/3xFLAG-PI3KCA (157-299) (Homo sapiens, UniProt P01116, G12D/Q25A).
T4 construct: 375 nM Avi-KRAS G12D/Q25A (1-169) GppNHp
T4 sequence (P01116 1-169 isoform P01116-2 G12D/Q25A): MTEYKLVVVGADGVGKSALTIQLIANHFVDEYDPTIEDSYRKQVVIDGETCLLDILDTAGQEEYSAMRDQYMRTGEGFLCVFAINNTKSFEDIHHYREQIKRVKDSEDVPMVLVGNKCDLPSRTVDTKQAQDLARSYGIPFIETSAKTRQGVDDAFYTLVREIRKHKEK
The experiment is described as follows: RAS-effector PPI HTRF disruption assay, PI3KCA-GppNHp-KRAS G12D/Q25A. It is filed as biochemical. As for the experimental part:
as §1, §2, §3, §4, §5

Experiment [5] has as its system pERK in GP2d cells (KRAS G12D). The experiment is described as follows: Cell-based pERK HTRF assay in GP2d cell. The settings on record: 60 min incubation. As for the experimental part:
A pERK assay (Perkin Elmer) was used to determine the effectiveness of compounds in disrupting KRAS G12D protein/effector signaling in cells.
On Day 1, cells (GP2d) were seeded into 96-well plates at 3×10^4 cells/well in 80 μL complete growth media (DMEM, 10% FBS).
On Day 2, cells were treated with compounds at 0.25% DMSO. The source plate was created with compounds diluted in media at 5-fold the final assay concentration. The compounds were run in a 9-point concentration curve starting at 1 μM, with a half-log dilution between concentrations. 20 μL was transferred onto the cell plates (final volume in wells was 100 μL). Plates were harvested after 60 min incubation by aspirating media and adding kit-supplied 1× supplemented lysis buffer to all wells (50 μL per well). Plates were then placed on a plate shaker and incubated at 850 rpm for an additional 30 min.
Antibody mixture solution is prepared by diluting aliquoted d2 and Eu Cryptate antibodies 1:20 in kit supplied detection buffer, mix the diluted antibodies solutions (1:1 v:v). 4 μL of this solution is then added to a 384-well detection plate (Perkin Elmer; 6008230).
Samples were homogenized by pipetting up and down and then transferred (16 μL of cell lysates) from the 96-well cell culture plate to two wells of the HTRF 384-well detection plate containing the antibody solution. Plates were centrifuged (524 g for 1 min) and allowed to incubate between 4 and 24 h at room temperature. Maximum signal is reached after 4 h incubation time and remains stable over a period of 24 hours. Therefore, readings can be made between 4 and 24 h of incubation. Plates were centrifuged again (524 g for Imin), then analyzed on the EnVision plate reader using the following settings: Excitation 320 nm, Bandwidth 75 nm; Emission 615 nm, Bandwidth 85 nm; Gain 100%; Flashes 100; Lag 60 μs.

Where two headings read alike, the source gives them in different places.

T2 sequence (P01116 1-169 isoform P01116-2): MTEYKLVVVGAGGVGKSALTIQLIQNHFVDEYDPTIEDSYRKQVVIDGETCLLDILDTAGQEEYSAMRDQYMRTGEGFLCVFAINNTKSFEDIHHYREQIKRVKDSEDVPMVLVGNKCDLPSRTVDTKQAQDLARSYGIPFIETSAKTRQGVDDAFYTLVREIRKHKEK
T1 sequence (P01116 1-169 isoform P01116-2 G12D): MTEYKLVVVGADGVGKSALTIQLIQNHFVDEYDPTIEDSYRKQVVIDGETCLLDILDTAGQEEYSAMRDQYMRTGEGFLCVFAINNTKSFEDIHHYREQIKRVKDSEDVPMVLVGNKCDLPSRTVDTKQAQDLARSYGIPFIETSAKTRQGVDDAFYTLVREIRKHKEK
T3 sequence (P01116 1-169 isoform P01116-2 G12V): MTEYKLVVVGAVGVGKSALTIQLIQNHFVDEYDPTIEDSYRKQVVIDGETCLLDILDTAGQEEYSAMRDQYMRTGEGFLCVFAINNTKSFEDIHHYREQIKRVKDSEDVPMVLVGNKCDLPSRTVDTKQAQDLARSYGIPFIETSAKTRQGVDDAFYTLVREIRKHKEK

For `Nc1nc2c(-c3c(C(F)(F)F)cc4c(O[C@@H]5CCNC5)nc(OC[C@@]56CCCN5C[C@H](F)C6)nc4c3F)ccc(F)c2s1` (atropisomer, axis not shown) [Compound 4], the IC50 was in the range of 0.1 to 1 µM in experiment [1], 1 to 10 µM in experiment [2], 1 to 10 µM in experiment [3] and 0.1 to 1 µM in experiment [4].
Regarding `Nc1nc2c(-c3c(C(F)(F)F)cc4c(O[C@@H]5CCNC5)nc(OC[C@@]56CCCN5C[C@H](F)C6)nc4c3F)ccc(F)c2s1` (atropisomer, axis not shown) [Compound 5], the IC50 in experiment [1], in experiment [2], in experiment [3] and in experiment [4] was over 10 µM in each case.
As for `Nc1nc2c(-c3c(C(F)(F)F)cc4c(O[C@H]5C[C@H]6CC[C@@H](C5)N6)nc(OCC56CCCN5CCC6)nc4c3F)ccc(F)c2s1` (atropisomer, axis not shown) [Compound 6], the IC50 in experiment [1] was 1 to 10 µM; in experiment [2], 1 to 10 µM; in experiment [3], over 10 µM; in experiment [4], 1 to 10 µM.
With `C[C@@H]1NCC[C@H]1Oc1nc(OC[C@@]23CCCN2C[C@H](F)C3)nc2c(F)c(-c3ccc(F)c4sc(N)nc34)c(C(F)(F)F)cc12` (atropisomer, axis not shown) [Compound 8], the IC50 fell in the range of 0.1 to 1 µM in experiment [1]; 1 to 10 µM in experiment [2]; 1 to 10 µM in experiment [3]; 0.1 to 1 µM in experiment [5] (GP2d, 1 h); 0.1 to 1 µM in experiment [4].
Regarding `C[C@@H]1NCC[C@H]1Oc1nc(OC[C@@]23CCCN2C[C@H](F)C3)nc2c(F)c(-c3ccc(F)c4sc(N)nc34)c(C(F)(F)F)cc12` (atropisomer, axis not shown) [Compound 9], the IC50 in experiment [1], in experiment [2], in experiment [3] and in experiment [4] was over 10 µM in each case.
Consider `Nc1nc2c(-c3c(C(F)(F)F)cc4c(O[C@@H]5CCNC5)nc(OC[C@@]56CCCN5C[C@H](F)C6)nc4c3Cl)ccc(F)c2s1` (atropisomer, axis not shown) [Compound 10], for which the IC50 lay within 0.1 to 1 µM in experiment [1]; 1 to 10 µM in experiment [2]; 1 to 10 µM in experiment [3]; 0.1 to 1 µM in experiment [5] (read-out: pERK-Gp2D-1 hr); 0.1 to 1 µM in experiment [4].
As for `Nc1nc2c(-c3c(C(F)(F)F)cc4c(O[C@@H]5CCNC5)nc(OC[C@@]56CCCN5C[C@H](F)C6)nc4c3Cl)ccc(F)c2s1` (atropisomer, axis not shown) [Compound 11], the IC50 in experiment [1] was over 10 µM; in experiment [2], over 10 µM; in experiment [3], over 10 µM; in experiment [5] (read-out: pERK-Gp2D-1 hr), over 1 µM; in experiment [4], over 10 µM.
As for `Nc1nc2c(-c3c(C(F)(F)F)cc4c(O[C@H]5CNCC5(F)F)nc(OC[C@@]56CCCN5C[C@H](F)C6)nc4c3F)ccc(F)c2s1` (atropisomer, axis not shown) [Compound 29], the IC50 in experiment [1] was over 10 µM; in experiment [2], over 10 µM; in experiment [3], over 10 µM; in experiment [5] (read-out: pERK-Gp2D-1 hr) it was over 1 µM; in experiment [4] it was over 10 µM.
For the compound `C[C@@H]1C[C@H](Oc2nc(OC[C@@]34CCCN3C[C@H](F)C4)nc3c(F)c(-c4ccc(F)c5sc(N)c(C#N)c45)c(Cl)cc23)CN1` (atropisomer, axis not shown) [Compound 60], the IC50 in experiment [1] was 0.1 to 1 µM; in experiment [2], 0.1 to 1 µM; in experiment [3], 0.1 to 1 µM; in experiment [5] (read-out: pERK-Gp2D-1 hr) it was at most 0.1 µM; in experiment [4], 0.1 to 1 µM.
Consider `C[C@@H]1C[C@H](Oc2nc(OC[C@@]34CCCN3C[C@H](F)C4)nc3c(F)c(-c4ccc(F)c5sc(N)c(C#N)c45)c(Cl)cc23)CN1` (atropisomer, axis not shown) [Compound 61], for which the IC50 was over 10 µM in experiment [1]; over 10 µM in experiment [2]; over 10 µM in experiment [3]; over 1 µM in experiment [5] (read-out: pERK-Gp2D-1 hr); over 10 µM in experiment [4].
Turning to `N#Cc1c(N)sc2c(F)ccc(-c3c(Cl)cc4c(O[C@@H]5CNC[C@H]5F)nc(OC[C@@]56CCCN5C[C@H](F)C6)nc4c3F)c12` (atropisomer, axis not shown) [Compound 64], the IC50 in experiment [1] is over 10 µM; in experiment [2], over 10 µM; in experiment [3] it was over 10 µM; in experiment [5] (GP2d, 1 h), over 1 µM; in experiment [4] it was over 10 µM.
Regarding `N#Cc1c(N)sc2c(F)ccc(-c3c(Cl)cc4c(O[C@@H]5CN[C@@H](CO)C5)nc(OC[C@@]56CCCN5C[C@H](F)C6)nc4c3F)c12` (atropisomer, axis not shown) [Compound 68], the IC50 in experiment [1] is over 10 µM; in experiment [2] it was over 10 µM; in experiment [3], over 10 µM; in experiment [5] (read-out: pERK-Gp2D-1 hr), over 1 µM; in experiment [4], over 10 µM.
Take `N#Cc1c(N)sc2c(F)ccc(-c3c(Cl)cc4c(O[C@@H]5CN[C@@H](CO)C5)nc(OC[C@@]56CCCN5C[C@H](F)C6)nc4c3F)c12` (atropisomer, axis not shown) [Compound 69]: the IC50 in experiment [1] was at most 0.1 µM; in experiment [2] it was 0.1 to 1 µM; in experiment [3] it was 0.1 to 1 µM; in experiment [5] (read-out: pERK-Gp2D-1 hr) it was 0.1 to 1 µM; in experiment [4] it was 0.1 to 1 µM.
Regarding `N#Cc1c(N)sc2c(F)ccc(-c3c(Cl)cc4c(O[C@H]5CCN[C@@H]5CO)nc(OC[C@@]56CCCN5C[C@H](F)C6)nc4c3F)c12` (atropisomer, axis not shown) [Compound 75], the IC50 in experiment [1] is over 10 µM; in experiment [2], over 10 µM; in experiment [3] it was over 10 µM; in experiment [5] (read-out: pERK-Gp2D-1 hr), over 1 µM; in experiment [4], over 10 µM.
For `C[C@H]1CNCC1Oc1nc(OC[C@@]23CCCN2C[C@H](F)C3)nc2c(F)c(-c3ccc(F)c4sc(N)nc34)c(C(F)(F)F)cc12` (some centres unmarked) [Compound 2], the IC50 in experiment [1] is 1 to 10 µM; in experiment [2], 1 to 10 µM; in experiment [3], over 10 µM; in experiment [4] it was 1 to 10 µM.
On to `Nc1nc2c(-c3c(C(F)(F)F)cc4c(O[C@H]5CNC[C@H]5F)nc(OC[C@@]56CCCN5C[C@H](F)C6)nc4c3F)ccc(F)c2s1` [Compound 22, 7-fluoro-4-(8-fluoro-4-(((3S,4R)-4-fluoropyrrolidin-3-yl)oxy)-2-(((2R,7aS)-2-fluorotetrahydro-1H-pyrrolizin-7a(5H)-yl)methoxy)-6-(trifluoromethyl)quinazolin-7-yl)benzo[d]thiazol-2-amine], for which the IC50 in experiment [1] was over 10 µM; in experiment [2], 1 to 10 µM; in experiment [3], over 10 µM; in experiment [4], 1 to 10 µM.
